Entries after “also recorded” stand apart in the source; their conditions may differ.
How the values were obtained:
Type in all cases: in vivo, mouse
C57 and BTBR mice [1] = assay: Compartment entries during social novelty test (proxy for locomotor stimulant effects); conditions: for total entries during social novelty test: relative to saline; for compartment entries during social novelty test, change of stimulation with dose: various doses
Excerpt: (§1) Social preference chambers consisted of two polycarbonate boxes (13.5 cm wide×22.5 cm tall×31.0 cm deep), floored with rough-textured black ABS plastic, and connected to one another by a 1.25″ PVC T-junction. An infrared photobeam emitter/detector array was mounted at each intersection of the T-junction and each preference compartment, and as a mouse traversed the apparatus, it would break the photobeam upon entry to or exit from each preference compartment. Beam breaks started or stopped a counter on an interfaced computer, allowing automated collection of time spent in each compartment. At the end of each test, data were reported as time (in seconds) spent in each compartment, the number of entries into each compartment, and the average time spent in each compartment following an entry. Social preference tests were conducted in an iterative manner, with each test subject completing four distinct phases as described below. Between testing sessions, chambers were sanitized by wiping the insides with a disinfectant product provided by the UAMS Department of Laboratory Animal Medicine. At the end of the week (upon completion of all phases of the procedure), each apparatus was disassembled and all parts were sanitized. No food or water were available during social preference sessions, but were available in the home cage immediately afterwards.
Quantifying total entries into the preference compartments provides a proxy measurement for locomotor stimulant effects of the various doses of the various test drugs. This establishes a limit to the drug doses that can be tested in the social preference procedure, as induction of locomotor stimulant effects confounds preference assessments (because mice stop attending to the social stimuli in each compartment and instead spend their time engaged in locomotor behavior.) Motor activity varies across the distinct phases of social preference testing, in part because the habituation session is twice as long (30 minutes) as the novelty, sociability, and social novelty tests (15 minutes each), but also because mice emit high levels of exploratory behavior in novel environments. Thus, as familiarity with the test apparatus increases over successive exposures to the chambers, the number of entries decreases.
(Note that entries were collected for every test, but drug effects on entries during earlier phases may be less reliable due to the confounding influence of changing familiarity with the apparatus across phases.)

C57 and BTBR mice [2] = assay: Social preference procedure: sociability test; conditions: 1 mg/kg IP
Procedure: (§2) All drugs were dissolved in physiological 0.9% saline and administered at a constant volume of 1 ml/100 g body weight. Because all drugs utilized in these studies were synthesized as hydrochloride (HCl) salts, they were weighed as salts prior to the preparation of all solutions. All drugs at all concentrations are readily dissolved in an aqueous solution at normal pH. Injections of all drugs were administered intraperitoneally (IP) to mimic pharmacokinetic parameters typical of oral administration, without the behaviour-impairing effects of gavage stress.
(§3) This assay was conducted in adult male C57 and BTBR mice (n=6 per group) in a dedicated conditioning room where ambient light, sound, and human contact were tightly controlled.
as §1
A single sociability session occurred the day after the novelty preference test, where one compartment contained a wire mesh cup with a dummy mouse inside while the other compartment contained a male NIH Swiss stranger mouse inside the previously empty cup (see FIG. 4). […] The position of the dummy mouse (left or right compartment) remained the same for each subject as during the novelty test the day before, thereby counterbalancing the position of the stranger mouse across subjects. NIH Swiss stranger mice were similar in mass and appearance to the dummy PVC mice, and were housed separately from the experimental subjects (C57 and BTBR mice) in the colony facility. The first time the experimental subjects ever encountered the stranger mice was when they entered the compartment where they were contained. During this session, mice were weighed, administered the same injection as the day before, and returned to their home cage for a 30 min pretreatment period. Mice were then introduced into the T-junction and allowed to explore both preference compartments for 15 minutes. Sociability tests always occurred on Wednesdays or Thursdays to prevent any weekend testing.

C57 and BTBR mice [3] = assay: Tail cuff blood pressure monitoring (CODA non-invasive system); conditions: for toxicity (blood pressure) relative to racemic MDMA: IP
Procedure: The 8 chamber CODA™ Non-invasive blood pressure system was set up to monitor the blood pressure of C57 and BTBR mice. Mice were habituated to restraint, saline injection (IP), and tail-cuff pressure monitoring for at least three days before drug administration. Across days, groups of habituated mice were injected IP with increasing doses of test drug, in this case (R)-I, (S)-I and (R/S)-I, then returned to the home cage for 30 min. Tail cuff pressure monitoring then determined effects on systolic, diastolic, and mean arterial pressure in restrained C57 and BTBR mice in sessions lasting ˜30 min.
In the tail cuff pressure monitoring, an occlusion tail cuff was inflated to impede the blood flow to the tail. The cuff was deflated slowly, and a second tail cuff, incorporating the VPR sensor, measured the physiological characteristics of the returning blood flow. As the blood returned to the tail, the VPR sensor cuff measured the tail swelling resulting from arterial blood flow pulsations. Systolic blood pressure was automatically measured at the first appearance of tail swelling. Diastolic blood pressure was automatically measured when the increasing rate of swelling ceased in the tail.

C57 and BTBR mice [4] = assay: Conditioned place preference; conditions: 1.0 mg/kg, x3 pairings, C57 mice
Procedure: The same 2-compartment chambers as described above in the social preference studies for conditioned place preference. For these studies, compartments are differentiated by floor texture (rough black plastic vs steel punch plate) and wall pattern (vertical vs. horizontal stripes.) An initial preference/habituation test was first run where mice were able to freely traverse the apparatus for 30 minutes. The following day, mice were assigned to receive saline in one compartment and drug in the other. Saline pairings occurred in the morning, drug pairings occurred in the afternoon, and were separated by at least 4 hours, during which time mice returned to their home cages. Three such pairings were performed, where mice were injected, returned to the home cage for a 15 min pretreatment period, then confined to the injection-appropriate compartment for 30 minutes. Half the subjects (within strain) received drug pairings on the plastic floor+vertical stripes side, and the other half received drug pairings on the punch plate floor+horizontal stripes side. […] The post-conditioning preference test was identical to the initial preference/habituation session, where mice were freely able to traverse the apparatus for 30 minutes. Time spent in each compartment was recorded, and expressed as a preference score for the drug paired side (calculated as time spent in that compartment during the post-test—time spent there during the pre-test.) All preference and conditioning sessions were conducted under the same low light conditions as in the social preference tests.

C57 and BTBR mice [5] = assay: Social preference procedure: novelty preference test; conditions: 1 mg/kg IP
Procedure: as §2, §3
as §1, with “afterwards. […]” for “afterwards.”

| Compound | total entries during social novelty test (C57 and BTBR mice [1]; 1 mg/kg, C57 mice) | sociability (time spent with stranger mouse) (C57 and BTBR mice [2]; BTBR mice) | sociability (time spent with stranger mouse) (C57 and BTBR mice [2]; C57 mice) | cardiovascular effects (systolic, diastolic, mean arterial pressure) (C57 and BTBR mice [3]; 10 mg/kg and 30 mg/kg IP, C57 and BTBR mice) | toxicity (blood pressure) relative to racemic MDMA (C57 and BTBR mice [3]) | blood pressure rise relative to racemic MDMA and S-methamphetamine (C57 and BTBR mice [3]; both strains) | place conditioning (place preference) (C57 and BTBR mice [4]) | effect on novelty preference (time spent with dummy mouse) (C57 and BTBR mice [5]) | compartment entries during social novelty test (stimulation) (C57 and BTBR mice [1]; 1 mg/kg, BTBR mice, compared to (R)-I, racemic MDMA and saline) | compartment entries during social novelty test, change of stimulation with dose (C57 and BTBR mice [1]; BTBR mice) | compartment entries during social novelty test, change of stimulation with dose (C57 and BTBR mice [1]; C57 mice) | systolic and diastolic blood pressure (C57 and BTBR mice [3]; 10 mg/kg i.p.) |
| --- | --- | --- | --- | --- | --- | --- | --- | --- | --- | --- | --- | --- |
| c1cc2c(cc1C[C@H]1CCCN1)OCO2 [(R)-I, (R)-2-[(2H-1,3-benzodioxol-5-yl)methyl]pyrrolidine] | only slightly increased | minor increase in the sociability response | no impact | lower impact on cardiovascular effects than (S)-I | significantly less toxic | significantly lower | neither 1.0 mg/kg (R)-I nor 1.0 mg/kg (S)-I elicited significant place preferences; also recorded: negligible effects | no systematic effects | – | – | – | – |
| c1cc2c(cc1C[C@@H]1CCCN1)OCO2 [(S)-I, (S)-2-[(2H-1,3-benzodioxol-5-yl)methyl]pyrrolidine] | only slightly increased | strong response in sociability | slight increase in time spent with the stranger mouse | – | significantly less toxic | – | neither 1.0 mg/kg (R)-I nor 1.0 mg/kg (S)-I elicited significant place preferences; also recorded: negligible effects | no systematic effects | substantially stimulated | increase with increasing dose | reverses | higher systolic and diastolic blood pressure than (R)-I |
